This passage reports MIC results from ChEMBL document CHEMBL1158574, “Trichodermaketones A-D and 7-O-methylkoninginin D from the marine fungus Trichoderma koningii” (2010).

Each structure is given as a SMILES string.

One assay concerns Staphylococcus aureus. In words: Antibacterial activity against methicillin-resistant Staphylococcus aureus clinical isolate measured after overnight incubation at 37 degC. The format is functional.
A further assay has as its system Candida albicans. As to the kind of experiment: Antimicrobial activity against Candida albicans SC5314 measured after overnight incubation at 35 degC by broth microdilution assay. Type of assay: functional. For orientation: Dilution methods test growth across graded concentrations, often in twofold steps.

For `CCCCCC[C@H]1O[C@H]2C3=C(O[C@H]2[C@H]1O)[C@H](O)CCC3=O` [TRICHODERMAKETONE B], in the assay on Staphylococcus aureus, the minimum inhibitory concentration (MIC) was over 100 µg/mL. Regarding `CCCCCC[C@@H]1O[C@@H]2C3=C(O[C@@H]2[C@@H]1O)[C@H](O)CCC3=O` [TRICHODERMAKETONE A], the minimum inhibitory concentration (MIC) against Candida albicans was over 125 µg/mL; against Staphylococcus aureus, over 100 µg/mL. In the case of `CCCCCC[C@H](O)[C@@H]1C[C@@H](OC)C2=C(O1)[C@H](O)CCC2=O`, the MIC in the assay on Staphylococcus aureus was over 100 µg/mL.

For `CCCCCC/C=C/[C@H]1CC2=C(O1)[C@H](O)CCC2=O` [TRICHODERMAKETONE D], in the assay with Staphylococcus aureus, the MIC was over 100 µg/mL. The same measure, in the same setting: the result for `CCCCCC/C=C/[C@@H]1CC2=C(O1)[C@H](O)CCC2=O` [TRICHODERMAKETONE C] reads over 100 µg/mL.

As usually defined, the MIC is the least concentration at which growth counts as inhibited. A lower MIC goes with greater potency.
